Laboratory results: US12673961B2 (Agios Pharmaceuticals, Inc., priority 2022, dated 2026)

target: T1, human PAH with the R408W mutation (Homo sapiens, UniProt P00439, R408W); assay: Cell Based Phenylalanine Flux Assay; details: A375 cells expressing human R408W PAH; 24 hrs with compound, then sepiapterin and 13C9,15N-Phenylalanine for 4 hours; 13C-Tyrosine by LC-MS; average where tested multiple times; read-out: AC50;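 also: Ten-point dose curve from 2-fold serial dilutions, run in duplicate at 0.5% DMSO final, tracer step used 20 µM sepiapterin and 800 µM labeled phenylalanine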
T1 construct: expressed in transfected cells
T1 sequence (P00439 1-452 R408W): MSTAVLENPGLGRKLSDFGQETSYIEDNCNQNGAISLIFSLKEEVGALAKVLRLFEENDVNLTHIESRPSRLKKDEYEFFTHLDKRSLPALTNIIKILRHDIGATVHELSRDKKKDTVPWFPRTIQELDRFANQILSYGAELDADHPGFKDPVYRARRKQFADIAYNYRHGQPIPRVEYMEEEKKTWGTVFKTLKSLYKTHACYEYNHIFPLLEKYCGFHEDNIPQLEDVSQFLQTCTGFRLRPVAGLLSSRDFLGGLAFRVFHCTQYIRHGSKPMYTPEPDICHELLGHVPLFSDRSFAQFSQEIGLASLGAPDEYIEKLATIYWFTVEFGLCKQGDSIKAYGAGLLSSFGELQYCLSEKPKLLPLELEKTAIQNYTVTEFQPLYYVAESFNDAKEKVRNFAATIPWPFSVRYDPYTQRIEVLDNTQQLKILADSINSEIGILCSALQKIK
Protocol: Compounds were resuspended in DMSO, and 2-fold serial dilutions were performed to generate a 10-point dose curve. Compounds were added to plated cells in a total volume of 100 μl, and a final DMSO concentration of 0.5%. Each compound was tested in duplicate. Following compound addition, cells were placed in a 5% CO2, 37° C. tissue culture incubator for 24 hrs. […] 20 μM sepiapterin and 800 μM 13C9,15N-Phenylalanine were added. After 4 hours, cell media was removed. An aliquot of 10 μl of cell media was combined with 200 μl of extraction buffer (80% acetonitrile/20% H2O) for each well. Determination of ^13C-Tyrosine concentration was assessed by liquid chromatography mass spectrometry.
Where a compound was tested multiple times, the average value of the tests is reported.

**Q.** Which AC50 does the source give for `O=C(c1oc(-c2ccccn2)nc1C1CC1)N1CCc2[nH]cnc2[C@H]1c1cc2c(C(F)(F)F)cccn2n1` [Example 2124, (S)-(4-cyclopropyl-2-(pyridin-2-yl)oxazol-5-yl)(4-(4-(trifluoromethyl)pyrazolo [1,5-a]pyridin-2-yl)-1,4,6,7-tetrahydro-5H-imidazo[4,5-c]pyridin-5-yl)methanone] here?
**A.** Its AC50 is < 500 nM.

**Q.** With `Cc1cccn2nc([C@@H]3c4nc[nH]c4CCN3c3ccccn3)cc12` [Example 2127, (S)-4-(4-methylpyrazolo [1,5-a]pyridin-2-yl)-5-(pyridin-2-yl)-4,5,6,7-tetrahydro-1H-imidazo[4,5-c]pyridine] as the molecule, how does the AC50 read?
**A.** Its AC50 is < 500 nM.

**Q.** `FC(F)(F)c1ccc(N2CCc3[nH]cnc3[C@H]2c2cc3cccc(Cl)n3n2)nc1` [Example 2136, (S)-4-(7-chloropyrazolo [1,5-a]pyridin-2-yl)-5-(5-(trifluoromethyl)pyridin-2-yl)-4,5,6,7-tetrahydro-1H-imidazo[4,5-c]pyridine] was tested. Which AC50 did it give?
**A.** The AC50 was < 500 nM.

**Q.** For `CC(C)c1cccn2nc([C@@H]3c4nc[nH]c4CCN3c3nnc(C(F)(F)F)o3)cc12` [Example 2147, (S)-2-(4-(4-isopropylpyrazolo [1,5-a]pyridin-2-yl)-1,4,6,7-tetrahydro-5H-imidazo [4,5-c]pyridin-5-yl)-5-(trifluoromethyl)-1,3,4-oxadiazole], which AC50 is on record?
**A.** The AC50 was < 500 nM.

**Q.** Which AC50 does the source give for `CC(C)c1cccn2nc([C@@H]3c4nc[nH]c4CCN3c3ccc(C(F)(F)F)cn3)cc12` [Example 2148, (S)-4-(4-isopropylpyrazolo [1,5-a]pyridin-2-yl)-5-(5-(trifluoromethyl)pyridin-2-yl)-4,5,6,7-tetrahydro-1H-imidazo[4,5-c]pyridine] here?
**A.** The AC50 was < 500 nM.

**Q.** Which AC50 does the source give for `FC(F)Oc1cccn2nc([C@H]3c4nc[nH]c4CCN3c3nnc(C(F)(F)F)o3)cc12` [Example 2154, (R)-2-(4-(4-(difluoromethoxy)pyrazolo[1,5-a]pyridin-2-yl)-1,4,6,7-tetrahydro-5H-imidazo[4,5-c]pyridin-5-yl)-5-(trifluoromethyl)-1,3,4-oxadiazole] here?
**A.** Its AC50 is > 5000 nM.

**Q.** With `FC(F)Oc1cccn2nc([C@@H]3c4nc[nH]c4CCN3c3nnc(C(F)(F)F)o3)cc12` [Example 2155, (S)-2-(4-(4-(difluoromethoxy)pyrazolo[1,5-a]pyridin-2-yl)-1,4,6,7-tetrahydro-5H-imidazo[4,5-c]pyridin-5-yl)-5-(trifluoromethyl)-1,3,4-oxadiazole] as the molecule, how does the AC50 read?
**A.** The AC50 was < 500 nM.

**Q.** Which AC50 does the source give for `Fc1cccn2nc([C@@H]3c4nc[nH]c4CCN3c3nnc(-c4cnccn4)o3)cc12` [Example 2159, (S)-2-(4-(4-fluoropyrazolo [1,5-a]pyridin-2-yl)-1,4,6,7-tetrahydro-5H-imidazo[4,5-c]pyridin-5-yl)-5-(pyrazin-2-yl)-1,3,4-oxadiazole] here?
**A.** The AC50 was 500 to 1000 nM.

**Q.** Which AC50 does the source give for `Clc1cccn2nc([C@H]3c4nc[nH]c4CCN3c3nnc(-c4cnccn4)o3)cc12` [Example 2160, (R)-2-(4-(4-chloropyrazolo [1,5-a]pyridin-2-yl)-1,4,6,7-tetrahydro-5H-imidazo[4,5-c]pyridin-5-yl)-5-(pyrazin-2-yl)-1,3,4-oxadiazole] here?
**A.** The AC50 was > 5000 nM.

**Q.** `Clc1cccn2nc([C@@H]3c4nc[nH]c4CCN3c3nnc(-c4cnccn4)o3)cc12` [Example 2161, (S)-2-(4-(4-chloropyrazolo [1,5-a]pyridin-2-yl)-1,4,6,7-tetrahydro-5H-imidazo[4,5-c]pyridin-5-yl)-5-(pyrazin-2-yl)-1,3,4-oxadiazole] was tested. Which AC50 did it give?
**A.** Its AC50 is < 500 nM.

**Q.** With `FC(F)c1nnc(N2CCc3[nH]cnc3[C@H]2c2cc3c(C4CC4)cccn3n2)o1` [Example 2167] as the molecule, how does the AC50 read?
**A.** The AC50 was < 500 nM.

**Q.** With `CC(C)c1cccn2nc([C@H]3c4nc[nH]c4CCN3c3nnc(-c4cnccn4)o3)cc12` [Example 2176, (R)-2-(4-(4-isopropylpyrazolo [1,5-a]pyridin-2-yl)-1,4,6,7-tetrahydro-5H-imidazo [4,5-c]pyridin-5-yl)-5-(pyrazin-2-yl)-1,3,4-oxadiazole] as the molecule, how does the AC50 read?
**A.** The AC50 was > 5000 nM.

**Q.** For `CC(C)c1cccn2nc([C@@H]3c4nc[nH]c4CCN3c3nnc(-c4cnccn4)o3)cc12` [Example 2177, (S)-2-(4-(4-isopropylpyrazolo [1,5-a]pyridin-2-yl)-1,4,6,7-tetrahydro-5H-imidazo [4,5-c]pyridin-5-yl)-5-(pyrazin-2-yl)-1,3,4-oxadiazole], which AC50 is on record?
**A.** Its AC50 is 500 to 1000 nM.

**Q.** With `Fc1cccn2nc([C@@H]3c4nc[nH]c4CCN3c3nnc(-c4ccncn4)o3)cc12` [Example 2178, (S)-2-(4-(4-fluoropyrazolo [1,5-a]pyridin-2-yl)-1,4,6,7-tetrahydro-5H-imidazo[4,5-c]pyridin-5-yl)-5-(pyrimidin-4-yl)-1,3,4-oxadiazole] as the molecule, how does the AC50 read?
**A.** Its AC50 is 500 to 1000 nM.

**Q.** `Clc1cccn2nc([C@@H]3c4nc[nH]c4CCN3c3nnc(-c4ccncn4)o3)cc12` [Example 2182, (S)-2-(4-(4-chloropyrazolo [1,5-a]pyridin-2-yl)-1,4,6,7-tetrahydro-5H-imidazo[4,5-c]pyridin-5-yl)-5-(pyrimidin-4-yl)-1,3,4-oxadiazole] was tested. Which AC50 did it give?
**A.** Its AC50 is 500 to 1000 nM.

**Q.** For `Cc1cccn2nc([C@H]3c4nc[nH]c4CCN3c3nnc(C4(C)CC4)o3)cc12` [Example 2188, (R)-2-(1-methylcyclopropyl)-5-(4-(4-methylpyrazolo[1,5-a]pyridin-2-yl)-1,4,6,7-tetrahydro-5H-imidazo[4,5-c]pyridin-5-yl)-1,3,4-oxadiazole], which AC50 is on record?
**A.** Its AC50 is > 5000 nM.

**Q.** For `Cc1ncccc1-c1nnc(N2CCc3[nH]cnc3[C@H]2c2cc3c(C)cccn3n2)o1` [Example 2206, (S)-2-(4-(4-methylpyrazolo [1,5-a]pyridin-2-yl)-1,4,6,7-tetrahydro-5H-imidazo [4,5-c]pyridin-5-yl)-5-(2-methylpyridin-3-yl)-1,3,4-oxadiazole], which AC50 is on record?
**A.** Its AC50 is 500 to 1000 nM.

**Q.** For `Cc1ncccc1-c1nnc(N2CCc3[nH]cnc3[C@H]2c2cc3c(C(F)(F)F)cccn3n2)o1` [Example 2208, (S)-2-(2-methylpyridin-3-yl)-5-(4-(4-(trifluoromethyl)pyrazolo [1,5-a]pyridin-2-yl)-1,4,6,7-tetrahydro-5H-imidazo [4,5-c]pyridin-5-yl)-1,3,4-oxadiazole], which AC50 is on record?
**A.** The AC50 was 500 to 1000 nM.

**Q.** How did the AC50 turn out when `Cc1ncccc1-c1nnc(N2CCc3[nH]cnc3[C@H]2c2cc3c(C(F)F)cccn3n2)o1` [Example 2210, (S)-2-(4-(4-(difluoromethyl)pyrazolo[1,5-a]pyridin-2-yl)-1,4,6,7-tetrahydro-5H-imidazo [4,5-c]pyridin-5-yl)-5-(2-methylpyridin-3-yl)-1,3,4-oxadiazole] was run?
**A.** Its AC50 is 1000 to 5000 nM.

**Q.** `Cc1ncccc1-c1nnc(N2CCc3[nH]cnc3[C@H]2c2cc3c(F)cccn3n2)o1` [Example 2212, (S)-2-(4-(4-fluoropyrazolo [1,5-a]pyridin-2-yl)-1,4,6,7-tetrahydro-5H-imidazo [4,5-c]pyridin-5-yl)-5-(2-methylpyridin-3-yl)-1,3,4-oxadiazole] was tested. Which AC50 did it give?
**A.** The AC50 was < 500 nM.

**Q.** How did the AC50 turn out when `Cc1ncccc1-c1nnc(N2CCc3[nH]cnc3[C@@H]2c2cc3c(F)cccn3n2)o1` [Example 2213, (R)-2-(4-(4-fluoropyrazolo [1,5-a]pyridin-2-yl)-1,4,6,7-tetrahydro-5H-imidazo [4,5-c]pyridin-5-yl)-5-(2-methylpyridin-3-yl)-1,3,4-oxadiazole] was run?
**A.** Its AC50 is > 5000 nM.

**Q.** For `Cc1cccn2nc([C@@H]3c4nc[nH]c4CCN3C(=O)c3nc(C(F)F)nn3C)cc12` [Example 2214, (S)-(3-(difluoromethyl)-1-methyl-1H-1,2,4-triazol-5-yl)(4-(4-methylpyrazolo[1,5-a]pyridin-2-yl)-6,7-dihydro-1H-imidazo[4,5-c]pyridin-5(4H)-yl)methanone], which AC50 is on record?
**A.** The AC50 was < 500 nM.

**Q.** How did the AC50 turn out when `CC(C)(O)c1ncc(C(=O)N2CCc3[nH]cnc3[C@H]2c2cc3c(Cl)cccn3n2)o1` [Example 2216] was run?
**A.** Its AC50 is 500 to 1000 nM.

**Q.** Which AC50 does the source give for `Cc1nnc(C(=O)N2CCc3[nH]cnc3[C@H]2c2cc3c(OC(F)(F)F)cccn3n2)o1` [Example 2218, (S)-(5-methyl-1,3,4-oxadiazol-2-yl)(4-(4-(trifluoromethoxy)pyrazolo [1,5-a]pyridin-2-yl)-6,7-dihydro-1H-imidazo[4,5-c]pyridin-5(4H)-yl)methanone] here?
**A.** Its AC50 is 1000 to 5000 nM.

**Q.** How did the AC50 turn out when `Cc1nnc(C(=O)N2CCc3[nH]cnc3[C@@H]2c2cc3c(OC(F)(F)F)cccn3n2)o1` [Example 2219, (R)-(5-methyl-1,3,4-oxadiazol-2-yl)(4-(4-(trifluoromethoxy)pyrazolo [1,5-a]pyridin-2-yl)-6,7-dihydro-1H-imidazo[4,5-c]pyridin-5(4H)-yl)methanone] was run?
**A.** The AC50 was > 5000 nM.

**Q.** With `CC1(c2nnc(N3CCc4[nH]cnc4[C@@H]3c3cc4c(C5CC5)cccn4n3)o2)CC1` [Example 2226, (R)-2-(4-(4-cyclopropylpyrazolo [1,5-a]pyridin-2-yl)-1,4,6,7-tetrahydro-5H-imidazo [4,5-c]pyridin-5-yl)-5-(1-methylcyclopropyl)-1,3,4-oxadiazole] as the molecule, how does the AC50 read?
**A.** Its AC50 is > 5000 nM.

**Q.** Which AC50 does the source give for `CC1(c2nnc(N3CCc4[nH]cnc4[C@H]3c3cc4c(C5CC5)cccn4n3)o2)CC1` [Example 2227, (S)-2-(4-(4-cyclopropylpyrazolo [1,5-a]pyridin-2-yl)-1,4,6,7-tetrahydro-5H-imidazo [4,5-c]pyridin-5-yl)-5-(1-methylcyclopropyl)-1,3,4-oxadiazole] here?
**A.** Its AC50 is 500 to 1000 nM.

**Q.** For `CC(C)c1cccn2nc([C@H]3c4nc[nH]c4CCN3c3nnc(C4(C)CC4)o3)cc12` [Example 2228, (R)-2-(4-(4-isopropylpyrazolo [1,5-a]pyridin-2-yl)-1,4,6,7-tetrahydro-5H-imidazo [4,5-c]pyridin-5-yl)-5-(1-methylcyclopropyl)-1,3,4-oxadiazole], which AC50 is on record?
**A.** The AC50 was > 5000 nM.
